Laboratory results from patent US12473263B2, “Bicyclic inhibitors of CBX chromodomains” (Icahn School of Medicine At Mount Sinai, priority 2019, dated 2025).

Assays:
[1] = tested on: PC3 cells; assay: MTT assay for cell viability; type: cell-based; conditions: doses of 0, 1, 2.5, 3.75, 5.0, 8.0 micromolar
Description: The MTT assay is used to measure cellular metabolic activity as an indicator of cell viability, proliferation and cytotoxicity. This colorimetric assay is based on the reduction of a yellow tetrazolium salt (3-(4,5-dimethylthiazol-2-yl)-2,5-diphenyltetrazolium bromide or MTT) to purple formazan crystals by metabolically active cells. The viable cells contain NAD(P)H-dependent oxidoreductase enzymes which reduce the MTT to formazan. The insoluble formazan crystals are dissolved using 1-Propanol as a solubilization solution and the resulting purple colored solution is quantified by measuring absorbance at 570 nanometers (nm) using a multi-well spectrophotometer.
Protocol for MTT Assay: 100,000 PC3 cells were seeded per-well (CRL-1435, ATCC) for each dose of treatment 24 hours before treatment. Cells were quantitated with Countess II Cell Counter (AMQAX1000, Thermofisher Scientific). Cells were maintained at 37° C. with 5% CO2. SMAPs (dissolved in DMSO) were diluted to a stock concentration of 10 mM. Dilutions to the needed concentrations were made in DMEM (SH30022FS, Hyclone, GE Healthcare Life Sciences). Cells were treated with appropriate concentrations of compound. After 24 hours, MTT solution (M5655-1G, Sigma-Aldrich) was added to cells. Formazan crystals of metabolically active cells were dissolved with 1-Propanol (A414-500, ThermoFisher Scientific) and the solution was measured by absorbance at 570 nm (SpectraMax M5e, Molecular Devices).
Examples 1-3, 7-31, and 33-41 have also been studied in the above-described MTT assay for cell viability at four dose treatments (0, 2.5, 5.0, 10.0 micromolar).

[2] = biological target: CBX7ChD (Homo sapiens (Human), UniProt O95931); conditions: cited from earlier work
[3] = tested on: p16INK4a in prostate cancer cells; conditions: cited from earlier work
[4] = biological target: (Homo sapiens, UniProt O95931); assay: Fluorescence anisotropy (FP) competition binding assay; conditions: 10 nM FAM-ANRIL as probe
Description: Fluorescence Anisotropy Binding Assay
Expression and purification of the first bromodomain (BrD1) of human BRD4 in poly-His tag form was performed using a procedure described in the literature [See Zeng et al. Structure 16, 643-652 (2008) and Zhang et al., J Biol Chem 287, 28840-28851 (2012).] The protein was purified by using affinity chromatography on a nickel-IDA column (Invitrogen), followed by the removal of poly-His tag by thrombin cleavage.
Measurements were obtained after 1 hour incubation of the fluorescent ligand and the protein at 25° C. with Safire 2 microplate reader (Tecan). In the assay, fluorescent ligand concentration was ≤2Kd, and protein concentration was set at which 50-80% of fluorescent ligand is bound. Dissociation constant of a competing ligand was calculated with the correction to Cheng-Prussoff equation introduced by Nicolovska-Coleska and colleagues [Nikolovska-Coleska, Z. et al., Anal Biochem 332, 261-273 (2004). Assuming one-site competitive binding model, the equation used to calculate K1's from IC50 values recovered from fitting data using Prism:
where [I50] is the concentration of free inhibitor at 50% inhibition, [L50], the concentration of free labeled ligand at 50% inhibition, and [P0], concentration of free protein at 0% inhibition. Note that Kd for each protein-probe pair is the limit of resolvable K1 in a competition assay.

[5] = Homo sapiens, PC-3, 24 hours treatment

Sequence of (Homo sapiens, UniProt O95931) (O95931 whole entry, looked up): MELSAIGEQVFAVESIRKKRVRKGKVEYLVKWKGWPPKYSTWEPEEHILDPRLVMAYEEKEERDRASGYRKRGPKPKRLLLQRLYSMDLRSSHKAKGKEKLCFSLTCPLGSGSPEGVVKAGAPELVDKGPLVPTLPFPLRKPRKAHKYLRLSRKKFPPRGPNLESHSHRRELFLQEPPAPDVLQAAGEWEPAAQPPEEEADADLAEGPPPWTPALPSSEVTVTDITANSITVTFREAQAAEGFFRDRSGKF
Sequence of CBX7ChD (O95931 11-69): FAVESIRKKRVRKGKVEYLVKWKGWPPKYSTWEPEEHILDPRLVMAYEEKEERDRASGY

For `Cc1ccccc1Cn1c(=N)n(CC(O)c2ccc(Cl)c(Cl)c2)c2ccc(F)cc21` (stereo not drawn) [Example 2, 1-(3,4-dichlorophenyl)-2-(5-fluoro-2-imino-3-(2-methylbenzyl)-2,3-dihydro-1H-benzo[d]imidazol-1-yl)ethan-1-ol], the IC50 [1, 5] was 884 nM.
Work on `N=c1n(Cc2cn(Cc3ccccc3F)nn2)c2ccccc2n1CC(O)c1ccc(Cl)c(Cl)c1` (stereo not drawn) [Example 10, 1-(3,4-dichlorophenyl)-2-(3-((1-(2-fluorobenzyl)-1H-1,2,3-triazol-4-yl)methyl)-2-imino-2,3-dihydro-1H-benzo[d]imidazol-1-yl)ethan-1-ol] yielded an IC50 [1, 5] of 1840 nM.
In the case of `Cc1ccccc1Cn1c(=N)n(CC(O)c2ccc(Cl)c(Cl)c2)c2ccccc21.Cl` (stereo not drawn) [MS351], the “selectivity for CBX7ChD (over CBX2/4/6/8)” value [2] is given as “selective for CBX7ChD” and the “de-repression of p16INK4a” value [3] is given as “de-repress”.
With `N=c1n(Cc2cn(-c3ccccc3)nn2)c2cc(Cl)ccc2n1CC(O)c1ccc(Cl)c(Cl)c1` (stereo not drawn) [Example 35, 2-(5-chloro-2-imino-3-((1-phenyl-1H-1,2,3-triazol-4-yl)methyl)-2,3-dihydro-1H-benzo[d]imidazol-1-yl)-1-(3,4-dichlorophenyl)ethanol] the IC50 [1, 5] was 1120 nM.
In the case of `C#CCn1c(=N)n(CC(O)c2ccc(Cl)c(Cl)c2)c2ccccc21` (stereo not drawn) [Example 6, 1-(3,4-dichlorophenyl)-2-(2-imino-3-(prop-2-yn-1-yl)-2,3-dihydro-1H-benzo[d]imidazol-1-yl)ethan-1-ol], the Kd [4] is reported as 1.53 µM.
For `Cc1ccc(Cn2cc(Cn3c(=N)n(CC(O)c4ccc(Cl)c(Cl)c4)c4ccccc43)nn2)cc1` (stereo not drawn) [Example 9, 1-(3,4-dichlorophenyl)-2-(2-imino-3-((1-(4-methylbenzyl)-1H-1,2,3-triazol-4-yl)methyl)-2,3-dihydro-1H-benzo[d]imidazol-1-yl)ethan-1-ol], the Kd [4] was 0.108 µM and the IC50 ([1]; 24 hours treatment) was 900 nM.
`Cc1ccccc1Cn1c(=N)n(CC(O)c2ccc(Cl)c(Cl)c2)c2ccc(Cl)cc21` (stereo not drawn) [Example 3, 2-(5-chloro-2-imino-3-(2-methylbenzyl)-2,3-dihydro-1H-benzo[d]imidazol-1-yl)-1-(3,4-dichlorophenyl)ethan-1-ol] showed an IC50 [1, 5] of 776 nM.
